Reference: patent publication USRE43712E1, “Methods for assaying for antidepressant therapy markers” (The Board of Trustees of the Uniersity of Illinois, priority 2000, dated 2012)
Several values for one entry are separate records, joined by “and”; a condition that tells them apart may be missing. Equal values may be shown once. Entries after “also recorded” stand apart in the source; their conditions may differ. Marks after values point to notes of the source that are not given here.

Columns and labels:
Gsα [1] = assay: Detergent extraction of Gsα from rat synaptic membrane after chronic antidepressant treatment; format: in vivo; details: for GsαL in the Triton X-100 extract versus control / GsαL in the Triton X-114 extract versus control: rat synaptic membrane, 21 days treatment
Protocol: C6-2B cells (between passages 20 and 40) were grown in 175-cm^2 flasks in Dulbecco's modified Eagle medium, 4.5 g of glucose/L, 10% bovine serum, in a 10% CO2 atmosphere, at 37° C. for 3 days after splitting. […] Male Sprague-Dawley rats weighing 150-200 g were fed ad libitum and maintained in a 12-h light/dark cycle. […] 36:803-838, 1989]. […] Rat cerebral cortex membranes were prepared according to the method of Rasenick et al. [Nature, 294:560-562; 1981].
Membrane proteins were extracted sequentially from C6-2B or rat synaptic membranes as described [Yan et al., J. Neurochem., 66:1489-1495; 1996]. These membranes were stirred on ice in HEPES (15 mM, pH 7.4) containing 1% Triton X-100 for 60 min followed by centrifugation at 100,000 g for 60 min at 4° C. The supernatant was reserved (Triton X-100 extract), and the resulting pellet was resuspended in Tris (15 mM, pH 7.4) containing 1.4% Triton X-114 and 150 mM NaCl. The solution was stirred for 60 min at 4° C. and centrifuged for 30 min at 100,000 g in the cold. The supernatant was saved (Triton X-114 extract). These supernatants and remaining pellet (remainder) were subjected to sodium dodecyl sulfate (SDS)-polyacrylamide gel electophoresis (PAGE) using 10% gels. All of the extraction buffers contained 1 mM PMSF and 1 mM EGTA.
Rat cortex membrane, C6-2B cell membranes, or Triton extracts of each membrane preparation were subjected to SDS-PAGE followed by electrotransfer to polyvinylidene difluoride (PVDF) membrane. The PVDF membrane was incubated with a phosphate-buffered saline/Tween 20 Buffer (140 mM NaCl, […]. 0.1% Tween 20, pH 7.4) and 3% bovine serum albumin. The membrane was then incubated with polyclonal rabbit antisera against the various G protein subunits [RM (Gsα) or 116 (Gi1, Gi2, Gi3α)] at a 1:25,000 (RM) or 1:5,000 (116) dilution (see below for source of antibodies). […] Immunoreactivity was detected with an enhanced chemiluminescence (ECL) western blot detection system (Amersham) in accord with the manufacturer's instructions. The developed autoradiographs were analyzed by densitometry.
Rats were treated with antidepressant via intraperitoneal injection once daily for 21 days, control animals received an equal number and volume of injection of saline. Cerebral cortices from each group were removed. Rat synaptic membrane-enriched fractions were prepared (see Example 1). The ratios of the percentage of Gsα extracted by the two detergents in the treatment versus control groups were compared and are set forth in Table 3 as percentage of control (i.e., each Triton X-100 extract was compared with the untreated Triton X-100 extract, the same was comparison was undertaken for Triton X-114 extracts as well as the remainder). The values shown are means±standard error of the mean of 4-6 experiments.

Gsα [2] = assay: Cellular localization of Gsα in C6-2B cells, immunofluorescence laser scanning confocal microscopy; format: cell-based; details: for Cells displaying intense Gsα staining at the process tips (and processes): control 64%
Protocol: C6-2B cells (between passages 30 and 50) were plated onto coverslips and allowed to attach overnight in Dulbecco's modified Eagle's medium. 4.5 g/l glucose, 10% bovine serum, and 100 μg/ml penicillin and streptomycin at 37° C. in a humidified 10% CO2 atmosphere. […] Therefore, the latter treatment paradigm was used in these experiments because it was easier to maintain the cell cultures for 3 days. […] The culture media and drug were changed daily. […] After the treatment duration, the cells were incubated in drug-free media for 45 to 60 minutes before fixation.
After treatment, cells were washed once with phosphate-buffered saline (PBS, […] NaCl, 2.6 mM KCl, 5.4 mM NaαPO4 7H2O, pH 7.4) and fixed with ice-cold methanol for 10 minutes. Cells were then washed three times with PBS followed by 2 h of blocking in 5% normal goat serum/0.2% fish skin gelatin in PBS. Primary antibody was added for 1.5 h, Gsα/RM1 (PerkinElmer Life Sciences, Boston, Mass.) 1:50 and Goα (Santa Cruz Biotechnology, Santa Cruz, Calif.) 2 μg/ml, followed by three washes with PBS. Oregon Green-labeled secondary antibody (Molecular Probes, Eugene, Oreg.) was added at a concentration of 8 μg/ml for 1 h followed by three PBS washes. The coverslips were mounted onto slides with Vectashield (Vector Laboratories. Burlingame, Calif.) containing diamidino-2-phenylindole as a mounting medium. Images were acquired using a Zeiss LSM510 laser-scanning confocal microscope (Carl Zeiss Inc., Thornwood, N.Y.). A single 488-nm beam from an argon/krypton laser was used for excitation of the Oregon Green. Differential interference contrast images were also acquired. Five experiments were performed and coverslips were examined. Approximately 2100 cells from control and desipramine-treated coverslips were counted by two investigators blind to the experimental conditions over the course of the five experiments.
The cellular distribution of Gsα was quantified in confocal imaged C6-2B cells using NIH-Image software (http://rsbinfonihpov/nih-image) as describe previously [Southwell et al., Cell Tissue Res., 292:37-45, 1998; Jenkinson et al., Br. J. Pharmacol., 126:131-136, 1999]. Images of 9×1 μm optical, planar sections taken from four randomly selected control and four randomly selected desipramine-treated cells were captured and the middle five sections from each cell were quantified. Total cellular Gsα fluorescence was measured by counting the number of pixels with intensity above threshold (determined by minimum intensity above background in this case 50 pixels). The areas of intensity were numbered and divided visually into those localized to the cell body and those localized to the processes and process tips. The total from each region was divided by the total cell pixel intensity and expressed as a percentage of the total. This was done for each section of each cell and the sections were averaged per cell to give an average percentage total per cell.
In a separate investigation, seven sets of 300 cells each from control group and desipramine-treated cells from five experiments were counted to determine the primary localization (processes and process tips or cell body) of Gsα within these cells. The majority of the cells stained positively for Gsα throughout the entire cell, but there was usually an enhancement in one of these regions. […] The counts are expressed as the ratio of process and process tip localization/cell body localization.
Studies were conducted to determine whether a shift in cellular localization of Gsα occurred in C6-2B cells subjected to antidepressants.
Twenty-one hundred cells from each group (control versus desipramine-treated) over a series of five experiments were examined to quantify the extent of the antidepressant effect. […] Abnormal cells or those not displaying processes were not included in the cell count. Cells (300-450) were counted per experiment and the ratio of category A cells to category B cells for each group is shown in FIG. 8. […]

Gsα [3] = assay: Detergent extraction of Gsα from rat synaptic membrane after chronic antidepressant treatment; format: in vivo; details: short-term treatment (1-day treatment of cells or 1-week treatment of rats)
[4] = rat cerebral cortex synaptic membrane, 10 mg/kg i.p. once daily for 21 days, mean ± SEM of 4-6 experiments
[5] = 10 μM desipramine 3 days, individual cells D1-D4

CNCCC(Oc1ccc(C(F)(F)F)cc1)c1ccccc1 (stereo not drawn) [Fluoxetine, fluoxetine]
GsαL in Remainder, % of corresponding value in control group (Gsα [1]; [4]): 53.8 ± 6.9^a % | GsαL in Triton X-100 extract, % of corresponding value in control group (Gsα [1]; [4]): 118.1 ± 3.4^a % | GsαL in Triton X-114 extract, % of corresponding value in control group (Gsα [1]; [4]): 81.9 ± 4.5^a % | GsαS in Remainder, % of corresponding value in control group (Gsα [1]; [4]): 45.2 ± 8.4^a % | GsαS in Triton X-100 extract, % of corresponding value in control group (Gsα [1]; [4]): 153.8 ± 39.9% | GsαS in Triton X-114 extract, % of corresponding value in control group (Gsα [1]; [4]): 91.6 ± 6.3% | GsαL in the Triton X-100 extract versus control (Gsα [1]): significant increase | GsαL in the Triton X-114 extract versus control (Gsα [1]): concomitant decrease | Gsα immunofluorescence in cell processes and process tips (Gsα [2]; 10 μM, 3 days): loss of staining in the processes and process tips; also recorded: drastic reduction | Cells displaying intense Gsα staining at the process tips (and processes) (Gsα [2]; 10 μM, 3 days): 45% | Effect of short-term treatment on the parameters examined (Gsα [3]): without effect

CNCCCN1c2ccccc2CCc2ccccc21 [Desipramine, desipramine]
GsαL in Triton X-100 extract, % of corresponding value in control group (Gsα [1]; [4]): 128.2 ± 9.5^a % | GsαL in Triton X-114 extract, % of corresponding value in control group (Gsα [1]; [4]): 77.3 ± 8.8^a % | GsαS in Remainder, % of corresponding value in control group (Gsα [1]; [4]): 84.9 ± 25.7% | GsαS in Triton X-100 extract, % of corresponding value in control group (Gsα [1]; [4]): 146.4 ± 9.6^b % | GsαS in Triton X-114 extract, % of corresponding value in control group (Gsα [1]; [4]): 71.7 ± 6.8^a % | GsαL in the Triton X-100 extract versus control (Gsα [1]): significant increase | GsαL in the Triton X-114 extract versus control (Gsα [1]): concomitant decrease | Decrease in Gsα localization to the processes and process tips, control versus treated cells (Gsα [2]; 10 μM desipramine 3 days): three-fold decrease | Percentage of Gsα immunofluorescence distribution, Processes, Average (Gsα [2]; 10 μM desipramine 3 days, average of four cells, control 12.0 ± 5.7): 4.1 ± 4.7% | Percentage of Gsα immunofluorescence distribution, Processes, Average (Gsα [2]; 10 μM desipramine 3 days, average of four cells, control 12.0 ± 5.7, listed as desipramine): 4% | Percentage of Gsα immunofluorescence distribution, Cell Body, Average (Gsα [2]; 10 μM desipramine 3 days, average of four cells, control 88.0 ± 5.7): 95.9 ± 4.7% | Percentage of Gsα immunofluorescence distribution, Cell Body, single cells (Gsα [2]; [5]): 91.4% and 92.2% and 100.0% (2×) | Percentage of Gsα immunofluorescence distribution, Processes, single cells (Gsα [2]; [5]): 8.6% and 7.8% and 0.0% (2×) | Gsα immunofluorescence in cell processes and process tips (Gsα [2]; 10 μM, 3 days): drastically reduced; also recorded: decrease in the cell processes and process tips | Gsα in the cell body (Gsα [2]; 10 μM, 3 days): increase | Cells displaying intense Gsα staining at the process tips (and processes) (Gsα [2]; 10 μM, 3 days): 32%
